# Experimental data as given in ChEMBL document CHEMBL5223129, “Antioxidant, Anti-inflammatory, and Immunomodulatory Roles of Nonvitamin Antioxidants in Anti-SARS-CoV-2 Therapy” (J Med Chem, 2022).
# Tested on: SARS-CoV-2
# Test: Antiviral activity against pseudovirus SARS-CoV-2 spike protein infected human HEK293T cells overexpressing ACE2 assessed as inhibition of viral infection incubated for 96 hrs by GFP fluorescence based method
# Format: functional, organism-based
# Conditions: Severe acute respiratory syndrome coronavirus 2, HEK-293T
structure (smiles),measurement,value
CC1=C[C@H](O)CC(C)(C)[C@H]1/C=C/C(C)=C/C=C/C(C)=C/C=C/C=C(C)/C=C/C=C(\CO)C(=O)CC1=C(C)C[C@@H](O)CC1(C)C,IC50,87.4 µM
